The values that follow come from patent publication US20230348866A1, “BI[…] FOR THE PRODUCTION OF CANNABINOIDS AND OTHER […]” (The Regents of the University of California, priority 2019, published 2023).

For assay [1], the system named is MatB pathway (RpMatB, CsAAE3, CsOLS, CsOAC). Description: OA/DA production using the MatB pathway with additives. The format is biochemical. The conditions noted are these: titer at 4 hours relative to control. The protocol:
(§1) OA/DA Reaction Conditions using MatB. The conditions for reactions using RpMatB to produce malonyl-CoA were as follows: 15 mM malonate, 5 mM hexanoate or 5 mM butyrate, 1 mM CoA, 4 mM ATP, 25 mM creatine phosphate, 10 mM KCl, 5 mM MgCl2 and 50 mM Tris pH 8.0, 1.3 μM RpMatB, 4.9 μM CsAAE3, 2.9 μM CsOLS, 46.6 μM CsOAC, 7.6 μM GsPpase, 2.6 μM ADK and 2 units of CPK (from Sigma Aldrich). For the additive reactions GPP (0.5-2 mM), OA (0.25-2 mM) and DA (0.25-5 mM) were added before the reaction was initiated.
For the time course, the reactions were quenched (see below) at various time points between 5 mins and 5 hours. The reactions with additives were quenched at 4 hours.
HPLC Sample Analysis. All samples were quenched by 4-fold dilution into methanol (samples with a higher concentration of analyte were diluted up to 10-fold). The protein precipitate was removed by centrifugation at 16,000×g for 5 minutes and the supernatant was transferred to an LC vial for analysis.
Samples were analyzed by reverse phase chromatography on a Syncronis C8 column (4.6×100 mm) using a Thermo Ultimate 3000 HPLC. The column compartment temperature was set to 40° C., and the flow rate was 1 mL/min. The sample inject volume was 20 μL (full loop). The compounds were separated using a gradient elution with water+0.1% TFA (solvent A) and acetonitrile+0.1% TFA (solvent B) as the mobile phase. Solvent B was held at 20% for the first minute. Then solvent B was increased to 95% B over 4 minutes, and held at 95% B for 3 minutes. The column was then re-equilibrated to 20% B for three minutes, for a total run time of 11 minutes. Standards were used to identify the retention time, and to produce an external standard curve for quantification.

In assay [2] the target is T1, OLS (Cannabis sativa, UniProt B1Q2B6).
T1 construct: CsAAE3, CsOLS and CsOAC were synthesized and cloned into the pET28(+) vector with Nde1/Xho1 restriction sites; made in house; host or cells: E. coli C43 BL21 (DE3)
T1 sequence (B1Q2B6 with tags, fused parts or gaps): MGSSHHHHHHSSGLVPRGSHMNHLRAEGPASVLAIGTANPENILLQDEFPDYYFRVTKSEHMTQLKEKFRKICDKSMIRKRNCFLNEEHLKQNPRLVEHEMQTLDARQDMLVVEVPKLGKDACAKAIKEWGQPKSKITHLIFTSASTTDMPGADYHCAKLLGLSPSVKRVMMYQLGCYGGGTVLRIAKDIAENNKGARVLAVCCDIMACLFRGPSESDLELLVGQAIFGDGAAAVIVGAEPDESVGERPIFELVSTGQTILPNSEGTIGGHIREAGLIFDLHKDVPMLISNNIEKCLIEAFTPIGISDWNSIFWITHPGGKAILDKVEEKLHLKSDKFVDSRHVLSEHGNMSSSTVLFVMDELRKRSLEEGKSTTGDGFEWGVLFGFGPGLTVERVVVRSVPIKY
Description: OLS activity assay (inhibition by OA/DA). The class given is biochemical, C. sativa. Conditions: for inhibition of OLS activity: individual enzymes screened, 250 μM OA or 1 mM DA. The protocol:
OLS Activity Assay. For the inhibition experiments the conditions were altered to: 1 mM malonyl-CoA, 400 μM hexanoyl-CoA in 50 mM citrate buffer, pH 5.5 in a final volume of 200 μL. Either 1% ethanol, 250 μM OA or 1 mM DA was added to the reaction, and then the reactions were initiated by adding 0.65 mg/mL OLS. 50 μL aliquots were quenched at 2, 4, 6 and 8 minutes in 150 μL of methanol. The reactions were vortexed briefly and centrifuged at 16,000×g for 2 minutes to pellet the proteins. The supernatant was analyzed by HPLC. The raw peak areas of HTAL, PDAL and olivetol were summed and plotted against time to determine the rate. The rate of the OA supplemented reaction and the DA supplemented reaction were normalized to the ethanol control.

The subject of assay [3] is OA pathway. Description: RpMatB reaction system with added GPP and NphB M31^S. The class given is biochemical. Conditions: increasing GPP (0.5-2 mM). As for the experimental part:
as §1
In an effort to reduce OA/DA inhibition, experiments were performed to remove OA/DA from the reaction as it is made by converting it directly into CBGA/CBGVA. To test this GPP and a stabilized CBGA synthase were added to the system (FIG. 6). The CBGA synthase used, NphB M31^S, is a stabilized version of the soluble enzyme designed previously (Valliere et al., Nat. Commun. 10:565, 2019). […] Experiments were performed to test the effect of GPP concentration on OA production. At just 500 μM GPP, OA production decreased 40% percent (FIG. 2C).

On to `CCCc1cc(O)cc(O)c1C(=O)O` [DA, divarinic acid], for which the “reduction of OA production” value in assay [1] (1 mM DA added at time zero) is on record as 30%. Also, the “inhibition of OLS activity” value in assay [2] is recorded as “strongly inhibited”.
On to `CC(C)=CCC/C(C)=C/COP(=O)(O)OP(=O)(O)O` [GPP, geranyl pyrophosphate], for which, in assay [1] (500 μM GPP added), the “decrease of OA production” value is listed as 40%. For the same molecule, the “overall production of OA and CBGA” value in assay [3] is recorded as “decrease”.
For the molecule `CCCCCc1cc(O)cc(O)c1C(=O)O` [OA, olivetolic acid], the “reduction of DA production” value in assay [1] (1 mM OA added at time zero) stood at 90%. The “inhibition of OLS activity” value in assay [2] was “strongly inhibited”. Also, in assay [2] (reaction relevant conditions), the “inhibition of enzyme activity, comparison among enzymes” value is recorded as “CsOLS is the most inhibited”.
